Measured values taken from patent US7892350B2, “Sacrificial agents for fly ash concrete” (Boral Material Technologies Inc., priority 2003, dated 2011).
Like-named read-outs stand apart in the source and are kept apart here.

Assay: Second sacrificial agent testing protocol: paste air measurements with DDBS (0.0125 wt %) and rating; as to Overall performance rating (second protocol rating): key: 0: Fail; 1: Poor; 2: Good; 3: Preferred; 4: Most preferred; as to SA Rating (0-4): key: 0: Fail; 1: Poor; 2: Good; 3: Preferred; 4: Most preferred
Method: The second sacrificial agents evaluation protocol has been designed to assess the relative potential value of candidate sacrificial agents with a maximum of five paste air measurements.
The first two measurements (of entrained air) are carried out with a standard AEA in a portland cement paste and in a FA:cement paste; these two tests provide reference values which can be used for the relative assessment of a series of sacrificial agents. The other three paste air measurements pertain to the properties and effectiveness of the sacrificial agents.
1. Measurement of the air entrained by a standard air-entraining admixture in a cement paste of fixed composition and fluidity; the latter is a reference system which provides ‘reference’ air entrainment values (‘A’ in FIG. 8).
2. […] The difference between ‘B’ and ‘A’ in FIG. 8 is the reduction in air entrainment due to the presence of the fly ash; this is illustrated as ‘C’ in FIG. 8.
In the present SA testing and evaluation protocol, the fly ash selected should remain the same for the entire set of additives tested, in order to provide reliable relative performance ranking. For the present series of test, the Fly Ash selected was the one identified as B1 in Table 1 below; the physico-chemical properties of this fly ash are reported in Table 1.
In testing for the relative performance of the sacrificial agent, the sacrificial agent dosage was chosen in the range 0-0.1 wt %, which corresponds to typical dosage values observed in paste, mortar and concrete tests reported in Tables 2, 3 and 4 and Tables 7 to 34.
3. Measurement of the air entrainment of the SA, by itself, in a cement-only paste at a dosage of 0.1 wt %; this is illustrated as ‘D’ in FIG. 8.
4. Measurement of the air entrained by DDBS in the FA-cement paste comprising 0.05% wt SA, under the same conditions as described in 2 above. The air entrainment value observed in this system, compared to that observed in the absence of the SA, yields the air recovery due to the SA, and is illustrated schematically as ‘E’ in FIG. 8.
5. Same as in 4 above, but with a higher SA concentration at 0.1 wt %; the air entrainment observed, again compared to the value observed in the absence of the SA, yields a second value of air recovery by the SA and is illustrated as ‘F’ in FIG. 8.
For the relative performance rating of the group of products chosen as potential SA and listed in Table 36, the following rating scheme (Tables A and B) was adopted (referring to FIG. 8 and quantities defined therein):
1: Chemical name of compound tested as potential sacrificial agent • Col. 2: Level of air entrainment by the candidate sacrificial agent, at a concentration of 0.1 wt %, in a Portland cement paste ([…]) • Col. […] 5: Sacrificial agent overall rating index (described below) • Col. 6: Hydrophilic-Lipophilic Balance (HLB) values of candidate sacrificial agent (source and significance of HLB data given below) • Col. 7: Logarithm of the Oil(octanol)/water partition coefficient (Kow) of the candidate sacrificial agents (source and significance of data given below).

[1] = Portland cement paste (PCA), […]
[2] = sacrificial agent overall rating index
[3] = B1 FA/cement paste, 0.0125 wt % DDBS, 0.05 wt % SA
[4] = B1 FA/cement paste, 0.0125 wt % DDBS, 0.10 wt % SA
[5] = sum of ratings of air entrainment recovery by 0.05% and 0.1% SA, DDBS 0.0125 wt %, 50:50 B1 fly ash:cement paste

Row | Compound | B1 + 0.0125% DDBS + 0.05% SA (air entrainment) (B1 FA/cement paste, […]) | B1 + 0.0125% DDBS + 0.1% SA (air entrainment) (B1 FA/cement paste, […]) | PCA + 0.1% SA (level of air entrainment by the candidate sacrificial agent) [1] | SA Rating (0-4) [2] | B1 + 0.0125% DDBS + 0.1% SA (air entrainment) [4] | also measured
1 | Cl.NCC(N)C(=O)O (stereo not drawn) | 1.7 | 1.9 | 0.3 | 0 | – | –
2 | Nc1c(O)cc(S(=O)(=O)[O-])c2ccccc12.[Na+] | – | – | 0.4 | 0 | 2.9 | B1 + 0.0125% DDBS + 0.05% SA (air entrainment) [3]: 3.1
3 | O=S(=O)([O-])c1cc(O)c2c(O)cc(S(=O)(=O)[O-])cc2c1.[Na+].[Na+] | 2.0 | 2.5 | 0.0 | 0 | – | –
4 | 1-Octanol | – | – | 0.0 | 0 | 1.4 | B1 + 0.0125% DDBS + 0.05% SA (air entrainment) [3]: 2.1
5 | CCCCO [1-Butanol] | – | – | – | – | – | B1 + 0.0125% DDBS + 0.05% SA (air entrainment): 5.9; B1 + 0.0125% DDBS + 0.1% SA (air entrainment): 6.5; Overall performance rating (second protocol rating): 4; PCA + 0.1% SA (level of air entrainment by the candidate sacrificial agent): 1.2; SA Rating (0-4): 4
6 | CCCCCCCCCCO [1-Decanol] | 2.1 | 1.7 | 0.0 | 0 | – | –
7 | CCN1CCCC1=O [1-Ethyl-2-Pyrrolidinone] | 4.3 | 5.6 | 2.5 | 3 | – | Overall performance rating (second protocol rating): 3
8 | CN1CCCC1=O [1-Methyl-2-Pyrrolidinone] | – | – | 1.9 | 0 | 3.8 | B1 + 0.0125% DDBS + 0.05% SA (air entrainment) [3]: 3.6
9 | CCCCCO [1-Pentanol] | 4.9 | 4.7 | 0.9 | 3 | – | Overall performance rating (second protocol rating): 3
10 | CC(O)C(C)O (stereo not drawn) [2,3-Butanediol] | 3.6 | 3.7 | 1.2 | 0 | – | –
11 | O=C(O)c1cc(O)ccc1O [2,5-Dihydroxybenzoic acid] | 1.9 | 1.6 | 0.0 | 0 | – | –
12 | O=S(=O)([O-])c1ccc2cc(S(=O)(=O)[O-])ccc2c1.[Na+].[Na+] [2,6-naphthalene disulfonate Na] | – | – | – | – | – | B1 + 0.0125% DDBS + 0.05% SA (air entrainment): 2.3; B1 + 0.0125% DDBS + 0.1% SA (air entrainment): 3.0; PCA + 0.1% SA (level of air entrainment by the candidate sacrificial agent): 0.0; SA Rating (0-4): 0
13 | NCCOCCO [2-(2-Aminoethoxy)ethanol] | – | – | 0.5 | 1 | 3.9 | B1 + 0.0125% DDBS + 0.05% SA (air entrainment) [3]: 3.1; Overall performance rating (second protocol rating) [5]: 1
14 | CCC(C)O (stereo not drawn) [2-Butanol] | – | – | – | – | – | B1 + 0.0125% DDBS + 0.05% SA (air entrainment): 6.0; B1 + 0.0125% DDBS + 0.1% SA (air entrainment): 6.6; Overall performance rating (second protocol rating): 4; PCA + 0.1% SA (level of air entrainment by the candidate sacrificial agent): 1.4; SA Rating (0-4): 4
15 | CCC(C)=O [2-Butanone (Methyl ethyl ketone)] | 3.7 | 4.1 | 0.3 | 1 | – | –
16 | CCC(C)=O [2-Butanone] | – | – | – | – | – | Overall performance rating (second protocol rating): 1
17 | O=C(O)c1ccc2ccccc2c1 [2-Naphthoic acid] | – | – | 1.3 | 1 | 4.2 | B1 + 0.0125% DDBS + 0.05% SA (air entrainment) [3]: 3.2; Overall performance rating (second protocol rating) [5]: 1

Row | Compound | B1 + 0.0125% DDBS + 0.05% SA (air entrainment) (B1 FA/cement paste, […]) | B1 + 0.0125% DDBS + 0.1% SA (air entrainment) (B1 FA/cement paste, […]) | PCA + 0.1% SA (level of air entrainment by the candidate sacrificial agent) [1] | SA Rating (0-4) [2] | B1 + 0.0125% DDBS + 0.1% SA (air entrainment) [4] | also measured
18 | CCC(O)CC [3-Pentanol] | – | – | 0.5 | 4 | 6.3 | B1 + 0.0125% DDBS + 0.05% SA (air entrainment) [3]: 6.1; Overall performance rating (second protocol rating) [5]: 4
19 | CCc1ccc(S(=O)(=O)O)cc1 [4-Ethyl benzene sulfonic acid] | – | – | 1.3 | 3 | 6.2 | B1 + 0.0125% DDBS + 0.05% SA (air entrainment) [3]: 4.8; Overall performance rating (second protocol rating) [5]: 3
20 | O=S(=O)(O)c1ccc(O)cc1 [4-Hydroxybenzenesulfonic acid] | – | – | 0.1 | 0 | 2.0 | B1 + 0.0125% DDBS + 0.05% SA (air entrainment) [3]: 2.1
21 | O=C(O)c1ccc(O)cc1 [4-Hydroxybenzoic acid] | 2.1 | 2.4 | 1.0 | 0 | – | –
22 | CC#N [Acetonitrile] | 2.3 | 2.5 | 0.5 | 0 | – | –
23 | O=C(O)CCCCC(=O)O [Adipic acid] | 1.9 | 2.2 | 0.2 | 0 | – | –
24 | CC1=CCC2CC1C2(C)C (stereo not drawn) [Alpha-Pinene] | 2.4 | 2.9 | 0.4 | 0 | – | –
25 | Nc1ccccc1 [Aniline] | – | – | – | – | – | Overall performance rating (second protocol rating) [5]: 2
26 | OCc1ccccc1 [Benzyl alcohol] | – | – | 0.6 | 3 | 5.4 | B1 + 0.0125% DDBS + 0.05% SA (air entrainment) [3]: 4.1; Overall performance rating (second protocol rating) [5]: 3
27 | C[N+](C)(C)Cc1ccccc1.[OH-] [Benzyltrimethyl ammonium hydroxide] | – | – | – | 0 | 3.0 | B1 + 0.0125% DDBS + 0.05% SA (air entrainment) [3]: 2.3; PCA + 0.1% SA (level of air entrainment by the candidate sacrificial agent) (Portland cement paste (PCA), 0.1 wt % SA, no DDBS): 1.0
28 | CCCC=O [Butyraldehyde] | 4.0 | 4.0 | 0.0 | 2 | – | Overall performance rating (second protocol rating): 2
29 | OCCNCCO [Di-ethanolamine] | 2.7 | 2.6 | 0.3 | 0 | – | –
30 | CC(O)CNCC(C)O (stereo not drawn) [Di-isopropanolamine] | – | – | – | – | – | B1 + 0.0125% DDBS + 0.05% SA (air entrainment): 4.6; B1 + 0.0125% DDBS + 0.1% SA (air entrainment): 5.5; Overall performance rating (second protocol rating): 3; PCA + 0.1% SA (level of air entrainment by the candidate sacrificial agent): 1.1; SA Rating (0-4): 3
31 | COC(=O)CC(=O)OC [Dimethyl malonate] | 2.5 | 2.6 | 0.2 | 0 | – | –
32 | COP(=O)([O-])OC.[Na+] [Dimethylphosphate Na] | 2.5 | 2.7 | 1.3 | 0 | – | –
33 | C[S+](C)[O-] [Dimethylsulfoxide] | 2.5 | 3.1 | 0.0 | 0 | – | –
34 | CNC(=O)NC [Dimethylurea] | – | – | 0.5 | 2 | 2.9 | Overall performance rating (second protocol rating) [5]: 2
